# Patent EP0998924A1, “ANTITUMOR AGENTS” (MEIJI MILK PRODUCTS COMPANY LIMITED, priority 1997, dated 1999)
# Tested on: topoisomerase II
# Experiment: Measurement of topoisomerase II inhibitory activity (kDNA decatenation, agarose gel electrophoresis and densitometry)
# Format: biochemical, rat
# Procedure: Test Example 1 Measurement of Topoisomerase II Inhibitory Activity
# (A) Extraction of crude topoisomerase II from rat infant brain nuclei (IBN)
# IBN (11.98 mg/ml in 50% glycerol) (4.2 µl) was fractionated and subjected to centrifugation (3,000 × g, one minute), to thereby remove glycerol. The thus-obtained pellet was suspended in a nuclear extraction buffer (20 mM Tris-HCl (pH 7.5), 0.3 M NaCl, 140 mM β-Me, […], 20 mM PMSF) (10 µl), and the suspension was incubated in ice for 30 minutes. Subsequently, the suspension was subjected to centrifugation (10,000 × g, 10 minutes) and supernatant was fractionated, to thereby obtain crude topoisomerase II. The thus-obtained topoisomerase II was diluted on the basis of activity.
# (B) Dilution of purified topoisomerase II (Top GEN, Inc)
# Topoisomerase II (Top GEN, Inc) was diluted with the aforementioned nuclear extraction buffer, so as to attain a concentration of 0.75 unit/ml.
# A test sample (1 µl) and a buffer (18 µl) containing a mixture of required amounts of Milli Q, 4 × topoisomerase II buffer (250 mM Tris-HCl (pH 7.9), 600 mM KCl, 50 mM MgCl2, 0.5 mM EDTA, 2.5 mM ATP, 150 mg/ml BSA), and k DNA (312 ng/ml) were added to an Eppendorf tube, and the resultant mixture was vortexed and lightly centrifuged. Subsequently, diluted crude topoisomerase II or diluted purified topoisomerase (1 µl) was added to the mixture, and the mixture was vortexed and lightly centrifuged. (Meanwhile, instead of such topoisomerase II, Milli Q (1 µl) and 50% DMSO (1 µl) were added to a reaction system prepared as a control, which system contains neither enzyme nor xanthone derivative, and 50% DMSO (1 µl) was added to a reaction system containing no xanthone derivative.)
# The Eppendorf tube containing crude topoisomerase II and the Eppendorf tube containing purified topoisomerase II were allowed to stand for 30 minutes at 30°C and 37°C, respectively. Subsequently, SDS/PK/BJ (4 µl) was added to both of the tubes in ice, and both were allowed to stand at 50°C for five minutes, vortexed, and lightly centrifuged. After being allowed to stand again at 50°C for 30 minutes, they were vortexed and lightly centrifuged.
# (C) Agarose gel electrophoresis and densitometry
# The above-treated mixture was subjected to agarose gel electrophoresis (-EtBr 50 V) by use of a 1 × TBE buffer for electrophoresis (89 mM Tris Base/89 mM boric acid/2 mM EDTA2Na). After electrophoresis, gel staining was performed by use of 1 × TBE ([…]). After being decolorized, the gel was irradiated with UV rays, and bands on the gel were observed. The concentration of the agarose gel was 0.8%.
# The amount of reacted enzyme was quantified by transforming the depth of color of the bands on the gel into numerical values by use of a computer (Gel Plotting Macros installed in NIH Image). Data of bands of mini-circle DNA were processed by a computer for conversion into numerical values and calculation, to thereby obtain residual activity (%).
# [1] = test sample concentration 100 µg/ml
# [2] = test sample concentration 500 µg/ml
# [3] = test sample concentration 0.5 µg/ml
# [4] = test sample concentration 1 µg/ml
# [5] = test sample concentration 50 µg/ml
# [6] = test sample concentration 10 µg/ml
Compound,Residual activity (%) [1] [%],Residual activity (%) [2] [%],Residual activity (%) [3] [%],Residual activity (%) [6] [%],further results
"Oc1ccc(C=CC=Cc2ccc(O)cc2)cc1 [4,4-(1,3-Butadiene-1,4-diyl)bis-phenol, 4,4-(1,3-butadiene-1,4-diyl)bis-phenol]",28,0,–,–,–
"Oc1ccc([C@H]2c3c(O)cc4c5c3[C@@H]([C@@H](c3ccc(O)cc3)c3c(O)cc(O)cc3[C@@H]5[C@@H](c3ccc(O)cc3)O4)[C@@H]2c2cc(O)cc(O)c2)cc1 [Davidiol A, davidiol A]",3,2,–,–,–
"Oc1ccc([C@H]2Oc3cc(O)cc4c3[C@@H]2c2cc(O)cc3c2[C@@H](c2cc(O)cc5c2[C@@H]4[C@H](c2ccc(O)cc2)O5)[C@H](c2ccc(O)cc2)O3)cc1 [α-Viniferin, α-viniferin]",–,–,41,–,Residual activity (%) [4]: 38%; Residual activity (%) [5]: 0%
hopeaphenol,4,1,–,–,–
kobophenol A,–,–,68,59,Residual activity (%) [5]: 18%
leachianol A,1,2,–,–,–
leachianol B,1,1,–,–,–
miyabenol A,–,–,32,0,Residual activity (%) [4]: 13%
miyabenol C,–,–,57,0,Residual activity (%) (test sample concentration 2 µg/ml): 42%
